Results as given in ChEMBL document CHEMBL3885861, “Open TG-GATES”.

Species on record: Rattus norvegicus
Assay: Open TG-GATES - Regimen: Daily Repeat
Assay type: toxicity, organism-based, Sprague-Dawley
Design: regimen Daily Repeat, gender Male, age 6 weeks
Conditions: in vivo, po, route gavage; for APTT / Bas / Eos / Fbg / Hb / Ht / Lym / MCH / MCHC / MCV / Mono / Neu / PT / Plat / RBC / Ret / WBC: tissue Blood; for KIDNEY_L / KIDNEY_R / KIDNEY_TOTAL: tissue Kidney; for LIVER: tissue Liver; for A/G / ALP / ALT / AST / BUN / CRE / Ca / Cl / DBIL / GLC / IP / K / LDH / Na / PL / RALB / TBIL / TC / TG / TP / gamma-GTP: tissue Plasma
[1] = 300 mg/kg, 72 h, dose level Middle, time 3 day
[2] = 300 mg/kg, […], dose level Middle, time 7 day
[3] = 300 mg/kg, […], dose level Middle, time 14 day
[4] = 300 mg/kg, […], dose level Middle, time 28 day
[5] = 1000 mg/kg, 72 h, dose level High, time 3 day
[6] = 1000 mg/kg, […], dose level High, time 7 day
[7] = 1000 mg/kg, […], dose level High, time 14 day
[8] = 1000 mg/kg, […], dose level High, time 28 day

CNC(=C[N+](=O)[O-])NCCSCc1ccc(CN(C)C)o1 [RANITIDINE]
TERMINAL_BW [1]: 231.7 g
APTT [1]: 20.3 s
Bas [1]: 0%
Eos [1]: 1%
Fbg [1]: 234.4 mg/dL
Hb [1]: 13.5 g/dL
Ht [1]: 39.4%
Lym [1]: 78.8%
MCH [1]: 21.9 pg
MCHC [1]: 34.3%
MCV [1]: 63.8 fL
Mono [1]: 3.2%
Neu [1]: 15.8%
PT [1]: 12.4 s
Plat [1]: 118.4 x10_4/uL
RBC [1]: 616.4 x10_4/ul
Ret [1]: 5.1%
WBC [1]: 112.2 x10_2/uL
KIDNEY_L [1]: 1 g
KIDNEY_R [1]: 1 g
KIDNEY_TOTAL [1]: 2 g
LIVER [1]: 11.1 g
A/G [1]: 1.6
ALP [1]: 966.2 IU/L
ALT [1]: 43.4 IU/L
AST [1]: 80 IU/L
BUN [1]: 14.8 mg/dL
CRE [1]: 0.4 mg/dL
Ca [1]: 10.9 mg/dL
Cl [1]: 104 meq/L
DBIL [1]: 0.09 mg/dL
GLC [1]: 196.6 mg/dL
IP [1]: 7.2 mg/dL
K [1]: 4.2 meq/L
LDH [1]: 195.6 IU/L
Na [1]: 141.2 meq/L
PL [1]: 142.8 mg/dL
RALB [1]: 3.4 g/dL
TBIL [1]: 0.1 mg/dL
TC [1]: 78.4 mg/dL
TG [1]: 80 mg/dL
TP [1]: 5.5 g/dL
gamma-GTP [1]: 1.8 IU/L
TERMINAL_BW [2]: 260.6 g
TERMINAL_BW [3]: 309.4 g
TERMINAL_BW [4]: 391.7 g
APTT [2]: 20.6 s
Bas [2]: 0%
Eos [2]: 1%
Fbg [2]: 227.4 mg/dL
Hb [2]: 14.1 g/dL
Ht [2]: 39.9%
Lym [2]: 83.6%
MCH [2]: 22 pg
MCHC [2]: 35.5%
MCV [2]: 62 fL
Mono [2]: 1.6%
Neu [2]: 12.4%
PT [2]: 12.4 s
Plat [2]: 130.4 x10_4/uL
RBC [2]: 644.2 x10_4/ul
Ret [2]: 4.8%
WBC [2]: 81.6 x10_2/uL
APTT [3]: 19.1 s
Bas [3]: 0%
Eos [3]: 0.8%
Fbg [3]: 239.2 mg/dL
Hb [3]: 14.6 g/dL
Ht [3]: 40.6%
Lym [3]: 76.8%
MCH [3]: 21.3 pg
MCHC [3]: 36%
MCV [3]: 59.2 fL
Mono [3]: 2.4%
Neu [3]: 18.4%
PT [3]: 12.1 s
Plat [3]: 117.4 x10_4/uL
RBC [3]: 687.2 x10_4/ul
Ret [3]: 3.9%
WBC [3]: 111.2 x10_2/uL
APTT [4]: 21 s
Bas [4]: 0%
Eos [4]: 1.2%
Fbg [4]: 216.2 mg/dL
Hb [4]: 15.3 g/dL
Ht [4]: 43.2%
Lym [4]: 81.4%
MCH [4]: 20.5 pg
MCHC [4]: 35.4%
MCV [4]: 58.1 fL
Mono [4]: 1.8%
Neu [4]: 14%
PT [4]: 12.3 s
Plat [4]: 110 x10_4/uL
RBC [4]: 747 x10_4/ul
Ret [4]: 2.2%
WBC [4]: 117.7 x10_2/uL
KIDNEY_L [2]: 1.1 g
KIDNEY_R [2]: 1.1 g
KIDNEY_TOTAL [2]: 2.2 g
KIDNEY_L [3]: 1.2 g
KIDNEY_R [3]: 1.2 g
KIDNEY_TOTAL [3]: 2.4 g
KIDNEY_L [4]: 1.4 g
KIDNEY_R [4]: 1.5 g
KIDNEY_TOTAL [4]: 2.9 g
LIVER [2]: 11.7 g
LIVER [3]: 13.8 g
LIVER [4]: 16.3 g
A/G [2]: 1.5
ALP [2]: 802.2 IU/L
ALT [2]: 33.2 IU/L
AST [2]: 61.4 IU/L
BUN [2]: 14.6 mg/dL
CRE [2]: 0.4 mg/dL
Ca [2]: 10.6 mg/dL
Cl [2]: 103.8 meq/L
DBIL [2]: 0.084 mg/dL
GLC [2]: 211.6 mg/dL
IP [2]: 7.5 mg/dL
K [2]: 3.8 meq/L
LDH [2]: 159.2 IU/L
Na [2]: 141 meq/L
PL [2]: 138.2 mg/dL
RALB [2]: 3.4 g/dL
TBIL [2]: 0.1 mg/dL
TC [2]: 72.8 mg/dL
TG [2]: 83 mg/dL
TP [2]: 5.7 g/dL
gamma-GTP [2]: 1.4 IU/L
A/G [3]: 1.4
ALP [3]: 849.4 IU/L
ALT [3]: 36.4 IU/L
AST [3]: 70.4 IU/L
BUN [3]: 17.4 mg/dL
CRE [3]: 0.5 mg/dL
Ca [3]: 10.6 mg/dL
Cl [3]: 103.6 meq/L
DBIL [3]: 0.098 mg/dL
GLC [3]: 203.8 mg/dL
IP [3]: 7.1 mg/dL
K [3]: 4 meq/L
LDH [3]: 228.8 IU/L
Na [3]: 142.2 meq/L
PL [3]: 151.6 mg/dL
RALB [3]: 3.5 g/dL
TBIL [3]: 0.2 mg/dL
TC [3]: 68.6 mg/dL
TG [3]: 142.4 mg/dL
TP [3]: 6 g/dL
gamma-GTP [3]: 1 IU/L
A/G [4]: 1.3
ALP [4]: 642.2 IU/L
ALT [4]: 34.6 IU/L
AST [4]: 60.2 IU/L
BUN [4]: 18 mg/dL
CRE [4]: 0.5 mg/dL
Ca [4]: 10.5 mg/dL
Cl [4]: 102.8 meq/L
DBIL [4]: 0.1 mg/dL
GLC [4]: 200 mg/dL
IP [4]: 6.9 mg/dL
K [4]: 3.6 meq/L
LDH [4]: 112 IU/L
Na [4]: 141.2 meq/L
PL [4]: 138.4 mg/dL
RALB [4]: 3.4 g/dL
TBIL [4]: 0.2 mg/dL
TC [4]: 64.6 mg/dL
TG [4]: 125.6 mg/dL
TP [4]: 6.1 g/dL
gamma-GTP [4]: 1 IU/L
TERMINAL_BW [5]: 237.1 g
APTT [5]: 20.1 s
Bas [5]: 0%
Eos [5]: 1%
Fbg [5]: 231.6 mg/dL
Hb [5]: 13.6 g/dL
Ht [5]: 39.8%
Lym [5]: 78.4%
MCH [5]: 21.5 pg
MCHC [5]: 34.1%
MCV [5]: 63.1 fL
Mono [5]: 3%
Neu [5]: 16%
PT [5]: 12 s
Plat [5]: 117.3 x10_4/uL
RBC [5]: 631.4 x10_4/ul
Ret [5]: 4.8%
WBC [5]: 85 x10_2/uL
KIDNEY_L [5]: 1 g
KIDNEY_R [5]: 1 g
KIDNEY_TOTAL [5]: 2 g
LIVER [5]: 12 g
A/G [5]: 1.6
ALP [5]: 907.8 IU/L
ALT [5]: 41.2 IU/L
AST [5]: 69.4 IU/L
BUN [5]: 14.8 mg/dL
CRE [5]: 0.4 mg/dL
Ca [5]: 11 mg/dL
Cl [5]: 103.6 meq/L
DBIL [5]: 0.098 mg/dL
GLC [5]: 198.4 mg/dL
IP [5]: 8 mg/dL
K [5]: 4 meq/L
LDH [5]: 216.6 IU/L
Na [5]: 140.6 meq/L
PL [5]: 148.4 mg/dL
RALB [5]: 3.4 g/dL
TBIL [5]: 0.2 mg/dL
TC [5]: 80 mg/dL
TG [5]: 107.4 mg/dL
TP [5]: 5.6 g/dL
gamma-GTP [5]: 1.4 IU/L
TERMINAL_BW [6]: 264.9 g
TERMINAL_BW [7]: 314.9 g
TERMINAL_BW [8]: 379.9 g
APTT [6]: 19.6 s
Bas [6]: 0%
Eos [6]: 0.8%
Fbg [6]: 216.8 mg/dL
Hb [6]: 13.9 g/dL
Ht [6]: 39.1%
Lym [6]: 82.2%
MCH [6]: 21.7 pg
MCHC [6]: 35.5%
MCV [6]: 61.2 fL
Mono [6]: 1.6%
Neu [6]: 12.8%
PT [6]: 12.5 s
Plat [6]: 121.8 x10_4/uL
RBC [6]: 639.4 x10_4/ul
Ret [6]: 5%
WBC [6]: 99 x10_2/uL
APTT [7]: 18.9 s
Bas [7]: 0%
Eos [7]: 1%
Fbg [7]: 234.2 mg/dL
Hb [7]: 14.5 g/dL
Ht [7]: 40.3%
Lym [7]: 77.8%
MCH [7]: 21.2 pg
MCHC [7]: 36.1%
MCV [7]: 58.7 fL
Mono [7]: 2.4%
Neu [7]: 18%
PT [7]: 12.1 s
Plat [7]: 118.7 x10_4/uL
RBC [7]: 686 x10_4/ul
Ret [7]: 4.3%
WBC [7]: 87.7 x10_2/uL
APTT [8]: 19.8 s
Bas [8]: 0%
Eos [8]: 1.2%
Fbg [8]: 234.2 mg/dL
Hb [8]: 15.5 g/dL
Ht [8]: 43.3%
Lym [8]: 77.2%
MCH [8]: 20.1 pg
MCHC [8]: 35.9%
MCV [8]: 56.2 fL
Mono [8]: 1.8%
Neu [8]: 18.6%
PT [8]: 12.2 s
Plat [8]: 113 x10_4/uL
RBC [8]: 769.8 x10_4/ul
Ret [8]: 2.2%
WBC [8]: 104.7 x10_2/uL
KIDNEY_L [6]: 1.1 g
KIDNEY_R [6]: 1.2 g
KIDNEY_TOTAL [6]: 2.3 g
KIDNEY_L [7]: 1.2 g
KIDNEY_R [7]: 1.2 g
KIDNEY_TOTAL [7]: 2.4 g
KIDNEY_L [8]: 1.4 g
KIDNEY_R [8]: 1.4 g
KIDNEY_TOTAL [8]: 2.8 g
LIVER [6]: 12.3 g
LIVER [7]: 14.2 g
LIVER [8]: 15.4 g
A/G [6]: 1.5
ALP [6]: 852.4 IU/L
ALT [6]: 37.2 IU/L
AST [6]: 65.4 IU/L
BUN [6]: 16.8 mg/dL
CRE [6]: 0.4 mg/dL
Ca [6]: 10.7 mg/dL
Cl [6]: 103.6 meq/L
DBIL [6]: 0.088 mg/dL
GLC [6]: 224.4 mg/dL
IP [6]: 7.8 mg/dL
K [6]: 3.7 meq/L
LDH [6]: 169.6 IU/L
Na [6]: 140.6 meq/L
PL [6]: 137.2 mg/dL
RALB [6]: 3.3 g/dL
TBIL [6]: 0.1 mg/dL
TC [6]: 76.8 mg/dL
TG [6]: 82.4 mg/dL
TP [6]: 5.5 g/dL
gamma-GTP [6]: 0.8 IU/L
A/G [7]: 1.4
ALP [7]: 785 IU/L
ALT [7]: 37.2 IU/L
AST [7]: 62.8 IU/L
BUN [7]: 17.6 mg/dL
CRE [7]: 0.5 mg/dL
Ca [7]: 10.5 mg/dL
Cl [7]: 103 meq/L
DBIL [7]: 0.08 mg/dL
GLC [7]: 193 mg/dL
IP [7]: 7.4 mg/dL
K [7]: 4.2 meq/L
LDH [7]: 205.8 IU/L
Na [7]: 141.8 meq/L
PL [7]: 137.8 mg/dL
RALB [7]: 3.5 g/dL
TBIL [7]: 0.1 mg/dL
TC [7]: 66.4 mg/dL
TG [7]: 104 mg/dL
TP [7]: 5.8 g/dL
gamma-GTP [7]: 1.2 IU/L
A/G [8]: 1.3
ALP [8]: 562.8 IU/L
ALT [8]: 38.8 IU/L
AST [8]: 61 IU/L
BUN [8]: 17.2 mg/dL
CRE [8]: 0.5 mg/dL
Ca [8]: 10.5 mg/dL
Cl [8]: 102.2 meq/L
DBIL [8]: 0.094 mg/dL
GLC [8]: 198.6 mg/dL
IP [8]: 7.2 mg/dL
K [8]: 3.8 meq/L
LDH [8]: 114.2 IU/L
Na [8]: 141.6 meq/L
PL [8]: 142.6 mg/dL
RALB [8]: 3.5 g/dL
TBIL [8]: 0.2 mg/dL
TC [8]: 70.4 mg/dL
TG [8]: 96 mg/dL
TP [8]: 6.1 g/dL
gamma-GTP [8]: 0.8 IU/L
